{
  "source": "patent US11766437B2",
  "about": "“Combination therapies for inhibition of TTK protein kinase” (UNIVERSITY HEALTH NETWORK, priority 2018, dated 2023)",
  "key": {"[1]": {"assay": "Animal body weight monitoring / tolerability in CT26 tumor-bearing BALB/cJ mice", "format": "in vivo, mouse", "experimental": "(§1) BALB/cJ mice were inoculated subcutaneously with 1×10^6 CT26 cells. The mice were then randomized. Animal weights were monitored daily, and tumor volume was measured three times per week.\n(§2) Treatments were initiated when tumor volumes reached an average size of ˜60 mm^3. To treat an established tumor, the animals were first assigned into groups, i.e., the control group receiving rat IgG2a […], the group receiving the compound CFI-402257 monotherapy, the group receiving the rat IgG2a anti-PD-1 antibody monotherapy and the group receiving the combination therapy. The compound CFI-402257 and the vehicle [10% (v/v) NMP/40% (v/v) PEG-300/50% (v/v) water for the hydrochloride form; or 80-90% (v/v) PEG-300 or PEG-400 20-10% (v/v) water for the bisphosphate hemihydrate form] were administered by oral gavage (PO), at 6 mg/kg daily (QD) for 21 days. The anti-PD-1 antibody or the isotype control were administered by intraperitoneal (IP) injection. 150 μg anti-PD-1 antibody was administered in four doses, i.e., on Days 0, 3, 6 and 10. These treatment studies were carried out in duplicates."}, "[2]": {"system": "CT26 mouse colon carcinoma", "assay": "Treatment of established subcutaneous CT26 tumors in BALB/cJ mice (syngeneic CT26 mouse colon carcinoma model)", "format": "in vivo", "details": "CFI-402257 6 mg/kg PO QD 21 days, anti-PD-1 antibody 150 μg IP Days 0, 3, 6, 10", "experimental": "as §1\n[…] was defined as 100×[1−TVf, treated−TVi, treated)/(TVf, control−TVi, control)], where TVf is the average tumor volume at the end of study and TVi is the average tumor volume at the end initiation of treatment. In cases in which tumor regression occurred, percentage of tumor regression was defined as 100×[1−(TVf, treated/TVi, treated)]. At the completion of each study, the mice were killed by an anesthetic overdose, and tumor tissue was removed for further analysis.\nas §2, with “The anti-PD-1 antibody or the isotype control were administered by intraperitoneal (IP) injection. 150 μg anti-PD-1 antibody was administered in four doses, i.e., on Days 0, 3, 6 and 10. These treatment studies were carried out in duplicates.” left out"}},
  "data": [
    {"smiles": "Cc1cc(-c2cnn3c(NC[C@H]4C[C@@](C)(O)C4)cc(Oc4cccnc4)nc23)ccc1C(=O)NC1CC1", "note": "[CFI-402257]", "values": [
      {"measurement": "tolerability of the administered dosage", "setting": "[1]; CFI-402257 6 mg/kg PO QD 21 days, anti-PD-1 antibody 150 μg IP Days 0, 3, 6, 10", "value": "well-tolerated"},
      {"measurement": "animals recording significant body weight loss", "setting": "[1]; first experiment", "value": "none"},
      {"measurement": "body weight loss", "setting": "[1]; second experiment", "value": "< 7.5", "unit": "%"},
      {"measurement": "complete tumor regression", "setting": "[2]; first and duplicate experiment together (FIGS. 1 and 2)", "value": "no instances in which complete regression was observed"},
      {"measurement": "effect on tumor growth (tumor volume)", "setting": "[2]; single agent arms, first and duplicate experiment (FIGS. 1B, 1C, 2B, 2C)", "value": "tumor growth delay"}
    ]}
  ]
}
